Reference: the supplement of paper PMC8960247
± gives the standard error.

Experiments:
[1] = system: 621-103 (TSC2-rescued); test: relative viability vs DMSO; higher = less cytotoxic; settings: serum: 10% FBS, 72 h
[2] = system: 621-102 (TSC2-deficient); test: as above; settings: serum: 10% FBS, 72 h
[3] = system: UMB1949 (TSC2-deficient); test: relative viability vs DMSO (fraction); higher = less cytotoxic; settings: serum: 0.1% FBS, 72 h;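 also: renal angiomyolipoma cell lines screened in 384-well plates, viability normalized per plate to DMSO-treated cells, each plate carrying 50 nM rapamycin and 1 µM staurosporine controls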
[4] = system: 621-102 (TSC2-deficient); test: as above; settings: serum: 0.1% FBS, 72 h

SMILES	relative viability ([1]; 0.0001 µM) [%]	relative viability ([1]; 0.001 µM) [%]	relative viability ([1]; 0.01 µM) [%]	relative viability ([1]; 0.1 µM) [%]	relative viability ([1]; 1 µM) [%]	relative viability ([1]; 10 µM) [%]	relative viability ([2]; 0.0001 µM) [%]	relative viability ([2]; 0.001 µM) [%]	relative viability ([2]; 0.01 µM) [%]	relative viability ([2]; 0.1 µM) [%]	relative viability ([2]; 1 µM) [%]	relative viability ([2]; 10 µM) [%]	relative viability ([3]; 0.0128 nM)	relative viability ([3]; 0.064 nM)	relative viability ([3]; 0.32 nM)	relative viability ([3]; 1.6 nM)	relative viability ([3]; 8 nM)	relative viability ([3]; 40 nM)	relative viability ([3]; 200 nM)	relative viability ([3]; 1000 nM)	relative viability ([3]; 5000 nM)	relative viability ([4]; 0.0128 nM)	relative viability ([4]; 0.064 nM)	relative viability ([4]; 0.32 nM)	relative viability ([4]; 1.6 nM)	relative viability ([4]; 8 nM)	relative viability ([4]; 40 nM)	relative viability ([4]; 200 nM)	relative viability ([4]; 1000 nM)	relative viability ([4]; 5000 nM)
Nc1ncn([C@H]2C[C@H](O)[C@@H](CO)O2)c(=O)n1 [Decitabine]	112 ± 7.6	102.5 ± 0.51	95.65 ± 0.75	95.7 ± 3.1	85.5 ± 6.7	83.8 ± 3.4	104 ± 11	94.3 ± 5.7	98.29 ± 0.53	98.5 ± 1.5	80.2 ± 4.8	93.1 ± 7.1	1.08	1.04	0.99	0.967	1.08	0.973	0.635	0.277	0.155	1	0.906	1	0.888	0.803	0.544	0.312	0.104	0.0392
Nc1cccc2c1C(=O)N(C1CCC(=O)NC1=O)C2=O (stereo not given) [Pomalidomide]	104.77 ± 0.07	102.3 ± 0.72	101.3 ± 0.69	96.9 ± 1.3	98.59 ± 0.92	100.7 ± 0.95	107 ± 1.1	112 ± 1.7	108 ± 3.3	116 ± 1.5	118 ± 2.1	118 ± 4	1.06	0.959	1.04	1.03	1.18	1.04	1.07	0.943	0.912	1.18	0.947	1.03	0.975	0.951	1.02	0.939	0.985	0.951
COc1ccc(S(=O)(=O)N(C(C)=O)c2ccccc2/C=C/c2cc[n+]([O-])cc2)cc1 [HMN-214]	98.78 ± 0.21	99.62 ± 0.55	100.9 ± 0.31	97.91 ± 0.21	45.5 ± 1.1	39.5 ± 0.96	112 ± 4	110 ± 1.5	96.8 ± 5.4	92.7 ± 1.4	40.4 ± 1.6	37 ± 2.7	1.14	1.08	1.09	1.17	1.09	0.985	0.0414	0.0021	0.00207	1.16	1.09	1.35	1.08	1.01	1.02	0.0913	0.0251	0.03
